Test results reported in patent US20230159989A1, “MULTIPLEXED FLUORESCENCE IN SITU HYBRIDIZATION METHOD CAPABLE OF RAPID DETECTION OF BILLIONS OF TARGETS” (Kanvas Biosciences, Inc., priority 2021, published 2023).

System: carbapenem-resistant K. pneumoniae
Assay: HiPR-FISH chip antimicrobial susceptibility / MIC by growth imaging at several meropenem concentrations
Assay type: cell-based
Settings: Klebsiella pneumoniae, several hours growth on a HiPR-FISH chip, in agreement with Clinical and Laboratory Standards Institute criteria, read-out: meropenem concentration beyond which the strain still grows (* denotes MIC)

C[C@@H](O)[C@H]1C(=O)N2C(C(=O)O)=C(S[C@@H]3CN[C@H](C(=O)N(C)C)C3)[C@H](C)[C@H]12 [meropenem]
MIC: > 2 µg/mL
